Measurements: PubChem BioAssay AID330 (DTP/NCI, 2004)
Where “and” joins values, the source holds several entries; their conditions need not be identical. Equal entries are not always repeated. Inconclusive results and toxic doses are left out.

System: P388 leukemia ip, CD2F1 mice, survival T/C
Test: NCI In Vivo Anticancer Drug Screen. Data for tumor model P388 Leukemia (intraperitoneal) in CD2F1 (CDF1) mice
Details: endpoint: median survival time, higher = longer survival
In short: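 Mice carrying the transplanted tumor received test compound or vehicle. Survival was recorded in each group, and the value is the treated-group measurement divided by that of the vehicle-treated control group.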

[1] = dose: 100.0 mg/kg/injection, schedule: Q01DX001 (ip), vehicle: Klucel (hydroxypropylcellulose) (HPC)
[2] = dose: 200.0 mg/kg/injection, schedule: Q01DX001 (ip), vehicle: Klucel (hydroxypropylcellulose) (HPC)
[3] = dose: 400.0 mg/kg/injection, schedule: Q01DX001 (ip), vehicle: Klucel (hydroxypropylcellulose) (HPC)
[4] = dose: 50.0 mg/kg/injection, schedule: Q01DX009 (ip), vehicle: Klucel (hydroxypropylcellulose) (HPC)
[5] = dose: 100.0 mg/kg/injection, schedule: Q01DX009 (ip), vehicle: Klucel (hydroxypropylcellulose) (HPC)
[6] = dose: 200.0 mg/kg/injection, schedule: Q01DX009 (ip), vehicle: Klucel (hydroxypropylcellulose) (HPC)

## C=CC12CN(C)C3C4COC(CC41)C1(C(=O)Nc4ccccc41)C32 (stereo not given)
dose: 1.25 mg/kg/injection, schedule: Q01DX009 (ip), vehicle: saline
  T/C: 103 % of control
dose: 2.5 mg/kg/injection, schedule: Q01DX009 (ip), vehicle: saline
  T/C: 88 % of control
dose: 5.0 mg/kg/injection, schedule: Q01DX009 (ip), vehicle: saline
  T/C: 95 % of control
dose: 7.5 mg/kg/injection, schedule: Q01DX005 (ip), vehicle: Klucel (hydroxypropylcellulose) (HPC)
  T/C: 98 % of control
dose: 10.0 mg/kg/injection, schedule: Q01DX009 (ip), vehicle: saline
  T/C: 106 % of control
dose: 15.0 mg/kg/injection, schedule: Q01DX005 (ip), vehicle: Klucel (hydroxypropylcellulose) (HPC)
  T/C: 95 % of control
dose: 30.0 mg/kg/injection, schedule: Q01DX005 (ip), vehicle: Klucel (hydroxypropylcellulose) (HPC)
  T/C: 98 % of control
dose: 60.0 mg/kg/injection, schedule: Q01DX005 (ip), vehicle: Klucel (hydroxypropylcellulose) (HPC)
  T/C: 102 % of control

## Cc1ccc(N=Nc2c(O)n(-c3ccccc3C)c(=S)n(-c3ccccc3Cl)c2=O)cc1
[1]
  T/C: 101 % of control
[2]
  T/C: 103 % of control
[3]
  T/C: 104 % of control

## Cn1c(=O)c2c(nc3n2CC(CF)O3)n(C)c1=O (stereo not given)
[4]
  T/C: 104 % of control
[5]
  T/C: 104 % of control
[6]
  T/C: 99 % of control

## C1=C(N2CCOCC2)N(c2ccccc2)c2ccccc2N=C1N1CCCC1
dose: 12.5 mg/kg/injection, schedule: Q01DX005 (ip), vehicle: Klucel (hydroxypropylcellulose) (HPC)
  T/C: 100 % of control
dose: 25.0 mg/kg/injection, schedule: Q01DX005 (ip), vehicle: Klucel (hydroxypropylcellulose) (HPC)
  T/C: 91 % of control
dose: 50.0 mg/kg/injection, schedule: Q01DX005 (ip), vehicle: Klucel (hydroxypropylcellulose) (HPC)
  T/C: 103 % of control and 96 % of control

## O=c1[nH]cc(C(O)Cc2ccccc2)c(=O)[nH]1 (stereo not given)
dose: 100.0 mg/kg/injection, schedule: Q01DX009 (ip), vehicle: saline with Tween-80
  T/C: 104 % of control
dose: 200.0 mg/kg/injection, schedule: Q01DX009 (ip), vehicle: saline with Tween-80
  T/C: 100 % of control
dose: 400.0 mg/kg/injection, schedule: Q01DX009 (ip), vehicle: saline with Tween-80
  T/C: 100 % of control

## N#C/C(=C\c1ccccn1)c1nc(-c2ccc(Cl)cc2)cs1
dose: 50.0 mg/kg/injection, schedule: Q01DX009 (ip), vehicle: saline
  T/C: 102 % of control
dose: 100.0 mg/kg/injection, schedule: Q01DX009 (ip), vehicle: saline
  T/C: 92 % of control
dose: 200.0 mg/kg/injection, schedule: Q01DX009 (ip), vehicle: saline
  T/C: 92 % of control

## C[Si](C)(C)ONC(=O)c1ccccc1
dose: 6.25 mg/kg/injection, schedule: Q01DX009 (ip), vehicle: distilled water + Tween-80
  T/C: 100 % of control
dose: 12.5 mg/kg/injection, schedule: Q01DX009 (ip), vehicle: distilled water + Tween-80
  T/C: 92 % of control
dose: 25.0 mg/kg/injection, schedule: Q01DX009 (ip), vehicle: distilled water + Tween-80
  T/C: 109 % of control
dose: 50.0 mg/kg/injection, schedule: Q01DX009 (ip), vehicle: distilled water + Tween-80
  T/C: 102 % of control
dose: 100.0 mg/kg/injection, schedule: Q01DX009 (ip), vehicle: distilled water + Tween-80
  T/C: 99 % of control
dose: 200.0 mg/kg/injection, schedule: Q01DX009 (ip), vehicle: distilled water + Tween-80
  T/C: 105 % of control

## C=C1C(=O)OC2/C=C(\C)C(OC(C)=O)C3OC3C(C)(O)CC(OC(=O)/C(C)=C/C)C12 (stereo not given)
dose: 10.0 mg/kg/injection, schedule: Q01DX009 (ip), vehicle: saline with Tween-80
  T/C: 99 % of control
dose: 20.0 mg/kg/injection, schedule: Q01DX009 (ip), vehicle: saline with Tween-80
  T/C: 104 % of control
dose: 40.0 mg/kg/injection, schedule: Q01DX009 (ip), vehicle: saline with Tween-80
  T/C: 107 % of control

## COc1cc2c(cc1OC)C(C)=NCC2
dose: 25.0 mg/kg/injection, schedule: Q01DX001 (ip), vehicle: saline
  T/C: 104 % of control
dose: 50.0 mg/kg/injection, schedule: Q01DX001 (ip), vehicle: saline
  T/C: 95 % of control
dose: 100.0 mg/kg/injection, schedule: Q01DX001 (ip), vehicle: saline
  T/C: 94 % of control
dose: 200.0 mg/kg/injection, schedule: Q01DX001 (ip), vehicle: saline
  T/C: 98 % of control

## COc1cc2ccc3c(c2cc1OC)CN(Cc1ccccc1)CC3
[5]
  T/C: 100 % of control
[6]
  T/C: 100 % of control
dose: 400.0 mg/kg/injection, schedule: Q01DX009 (ip), vehicle: Klucel (hydroxypropylcellulose) (HPC)
  T/C: 109 % of control

## Cn1c(=O)c2c(ncn2C2C(=O)NNC2=O)n(C)c1=O
[1]
  T/C: 100 % of control
[2]
  T/C: 93 % of control
[3]
  T/C: 94 % of control

## CCOC(=N)c1cn(C2OC(CO)C(O)C2O)c2ncnc(N)c12 (stereo not given)
dose: 0.2 mg/kg/injection, schedule: Q01DX009 (ip), vehicle: saline
  T/C: 161 % of control
dose: 0.25 mg/kg/injection, schedule: Q01DX009 (ip), vehicle: saline
  T/C: 150 % of control
dose: 0.3 mg/kg/injection, schedule: Q01DX009 (ip), vehicle: saline
  T/C: 157 % of control
dose: 0.5 mg/kg/injection, schedule: Q01DX009 (ip), vehicle: saline
  T/C: 159 % of control
dose: 1.0 mg/kg/injection, schedule: Q01DX009 (ip), vehicle: saline
  T/C: 118 % of control
dose: 2.0 mg/kg/injection, schedule: Q01DX009 (ip), vehicle: saline
  T/C: 90 % of control

## CN(O)C(=O)CNC(=O)OC(C)(C)C
dose: 50.0 mg/kg/injection, schedule: Q01DX005 (ip), vehicle: saline with Tween-80
  T/C: 100 % of control
dose: 100.0 mg/kg/injection, schedule: Q01DX005 (ip), vehicle: saline with Tween-80
  T/C: 98 % of control
dose: 200.0 mg/kg/injection, schedule: Q01DX005 (ip), vehicle: saline with Tween-80
  T/C: 100 % of control
dose: 400.0 mg/kg/injection, schedule: Q01DX005 (ip), vehicle: saline with Tween-80
  T/C: 105 % of control

## COC(=O)c1cc(NS(=O)(=O)N(C)C)cc(C(=O)OC)c1
[4]
  T/C: 103 % of control
[5]
  T/C: 103 % of control
[6]
  T/C: 103 % of control
